Assay [1] has as its system late-stage solid tumors or hematologic malignancies. The assay is described as follows: Phase I clinical study, open-label dose escalation, intravenous. Type of assay: in vivo, patients. Here is the method:
An open-label, dose escalation study of intravenous N-(3-amino-propyl)-3-chloro-N—[(R)-1-(7-chloro-4-oxo-3-phenylamino-3,4-dihydro-quinazolin-2-yl)-but-3-ynyl]-2-fluoro-benzamide was performed. The title compound was administered to patients with late-stage solid tumors or hematologic malignancies. […] There were 3-6 patients per cohort.

Another assay concerns HT29 xenograft. The assay is described as follows: Xenograft model. The settings on record: HT29, Colon; procedures and dosages of Examples 106-108. The class given is in vivo, mice.
The target in another assay is T1, HsEg5 (Homo sapiens, UniProt P52732).
T1 sequence (P52732 18-359 limits assumed): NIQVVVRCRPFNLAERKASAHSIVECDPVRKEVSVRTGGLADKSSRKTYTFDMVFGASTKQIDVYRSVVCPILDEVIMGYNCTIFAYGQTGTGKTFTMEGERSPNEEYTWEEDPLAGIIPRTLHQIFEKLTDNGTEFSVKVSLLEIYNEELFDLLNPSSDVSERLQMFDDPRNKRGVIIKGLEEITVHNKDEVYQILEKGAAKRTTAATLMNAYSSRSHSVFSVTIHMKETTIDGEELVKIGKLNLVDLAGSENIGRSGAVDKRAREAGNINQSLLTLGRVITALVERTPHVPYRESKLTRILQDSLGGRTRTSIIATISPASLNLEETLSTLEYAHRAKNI
The assay is described as follows: Fluorescence detection of HsEg5 ATPase activity (ADP Quest, automated). Type of assay: biochemical. In outline: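 Microtubule-activated HsEg5 motor fragment (10 nM, 500 nM MTs) preincubated 10 min with compound, then 20 μM ATP for 10 min at room temperature in Pipes pH 7.0, MgCl2, paclitaxel, 0.3% DMSO. ADP detected via coupled-enzyme resorufin fluorescence; IC50 over 100 μM–5 nM.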

Another assay relates to SK-OV-3 xenograft. The assay is described as follows: Xenograft model. The class given is in vivo, mice. The settings on record: SK-OV-3, Ovary; procedures and dosages of Examples 106-108.
[2] abbreviates: patients with the tumor types listed in Table 5.

As usually defined, the IC50 is the concentration that gives 50% inhibition. Read a low IC50 as higher potency.

Consider `C#CC[C@H](c1nc2cc(Cl)ccc2c(=O)n1Nc1ccccc1)N(CCCN)C(=O)c1cccc(Cl)c1F` [Compound 1, N-(3-Amino-propyl)-3-chloro-N—[(R)-1-(7-chloro-4-oxo-3-phenylamino-3,4-dihydro-quinazolin-2-yl)-but-3-ynyl]-2-fluoro-benzamide], for which the “Duration on Study” value is reported as 24 weeks in assay [1] (Cohort 1, 10 mg/m^2 intravenous, Cholangiocarcinoma (bile duct)); 17 weeks in assay [1] (Cohort 2, 20 mg/m^2 intravenous, Colorectal cancer); 24 weeks in assay [1] (Cohort 2, 20 mg/m^2 intravenous, Liposarcoma (soft tissue)); 39 weeks in assay [1] (Cohort 4, 53 mg/m^2 intravenous, Leiomyosarcoma (smooth muscle)); 24 weeks in assay [1] (Cohort 5, 70 mg/m^2 intravenous, Carcinoid); 19 weeks in assay [1] (Cohort 6, 100 mg/m^2 intravenous, Colorectal cancer). For the same molecule, the “Duration on Study” value is 36 weeks in assay [1] (Cohort 9, 280 mg/m^2 intravenous, Endocervical cancer) and 24 (active) weeks in assay [1] (Cohort 9, 280 mg/m^2 intravenous, Malignant Thymoma, patient still on study (active)). Besides, in assay [1] (endocervical cancer patient, before withdrawing consent), the response entry is reported as “minor response”. The disease course result in assay [1] (leiomyosarcoma patient, stayed on study afterwards) is given as “tumor progression at cycle 6”. The disease status result in assay [1] (setting [2]) is reported as “stable diseases for an extended period”. The “time patients stayed on study” value in assay [1] (setting [2]) is “greater than 16 weeks”. Further, the “Xenograft Outcome (approximate percent growth inhibition)” value with HT29 xenograft was roughly 30%; in the assay on SK-OV-3 xenograft, roughly 50%. On HsEg5, it took 28 nM to reach half-maximal inhibition (IC50).

Values taken from patent US20110217300A1, “Quinazolinone Compounds and Methods of Use Thereof” (priority 2007, published 2011).
